Measured values as given in patent US10953209B2, “Treating tumors using TTFields combined with a PARP inhibitor” (Board of Regents of the University of Texas System, priority 2018, dated 2021).

Experiments:
Format in all cases: cell-based, Human
H1299 cell line [1] = assay: Clonogenic survival, triple combination of TTFields, IR and Olaparib (CI); conditions: Olaparib 20 μM; for CI TTFields + Olap + 1 Gy: 1 Gy IR; for CI TTFields + Olap + 2 Gy: 2 Gy IR; for CI TTFields + Olap: no IR
Method: (§1) Experiments similar to those discussed above in connection with Table 2 and FIG. 6 were also conducted for H1299 and H157 cell lines, both with and without the PARP inhibitor Olaparib. More specifically, Olaparib (at a concentration of 20 μM) was added to cells, the cells were immediately exposed to TTFields for 24, […], or 72 h, removed, irradiated (at different doses of radiation), and immediately plated for survival.
(§2) The combination effect was evaluated using the Highest Single Agent approach and are listed in Table 4 and depicted in FIGS. 9A and 9B, which summarize the clonogenic assays for the different combinations of RT dosage and TTFields exposure time in the table, both with and without the Olaparib.
(§3) The inventors considered the combined effect of TTFields and Olaparib to be synergistic if the combination index (CI) was >1 and the P-value was <0.05 for a given time point and a given cell line.
(§4) Human NSCLC cell lines (H157, H4006, A549, H1299 and H1650) were purchased from American Tissue Culture Collection. All these cell lines were grown in RPMI medium supplemented with 10% (v/v) fetal bovine serum (Atlanta Biologicals, Flowery Branch, Ga., USA) and penicillin/[…] (final concentration 50 μg/ml; Sigma-Aldrich, St. Louis, Mo., U29SA). All cells were grown at 37° C. in a humidified incubator constantly supplied with 5% CO2.
(§5) The inventors used the inovitro system (NovoCure Ltd, Haifa, Israel) to generate TTFields that use two pairs of electrodes printed perpendicularly on the outer walls of a Petri dish composed of high dielectric constant ceramic (lead magnesium niobate-lead titanite (PMN-PT)). The transducer arrays were connected to a sinusoidal waveform generator that generate low-intensity electric fields at the desired frequencies in the medium as summarized in Table 1 above. The orientation of the TTFields was switched 90° every 1 s, thus covering the majority of the orientation axis of cell divisions, as previously described by Kirson et al. Plate temperature was maintained at 37° C. by placing the plates in a refrigerated incubator where the temperature was maintained at 19° C. to dissipate the heat generated by the inovitro system. The temperature was measured by 2 thermistors (Omega Engineering, Stamford, Conn., USA) attached to the ceramic walls. All cell suspensions were grown on a cover slip inside the inovitro dish (NovoCure Ltd) and treated with TTFields for the times indicated in the figure legends.
(§6) To study the effect of radiation sensitivity on NSCLC cells, exponentially growing cells were treated with IR using a Mark II Cs irradiator (J L Shepherd and Associates) at a dose rate of 3.47 Gy/min, followed by immediate application of TTFields for 24, 48 and 72 h. Cells were then re-seeded into 60 mm dishes and incubated for up to 2 weeks. Colonies containing 50 or more cells were considered viable. The data are presented as the mean±S.E.M. of three independent experiments. The radiosensitization effect of TTFields was evaluated according to The Highest Single Agent approach by calculating the CI as given below. CI=SFIR×SFTTFields)/SFIR+TTFields Where SF=Survivalfraction
(§7) For the Triple Combination of TTFields, IR, and Olaparib, CI was calculated using the following equations: CI(TTFields+olap)=(SFOlap×SFTTFields)/SFOlap+TTFields CI(TTFields+1Gy)=(SF1Gy×SFTTFields)/SF1Gy+TTFields CI(TTFields+2Gy)=(SF2Gy×SFTTFields)/SF2Gy+TTFields CI(TTFields+olap+1Gy)=(SF1Gy+Olap×SFTTFields)/SFOlap+TTFields+1Gy CI(TTFields+olap+2Gy)=(SF2Gy+Olap×SFTTFields)/SFOlap+TTFields+2Gy Where SF=Survival fraction

H157 cell line = assay: as above; conditions: Olaparib 20 μM; for CI TTFields + Olap + 1 Gy: 1 Gy IR; for CI TTFields + Olap + 2 Gy: 2 Gy IR; for CI TTFields + Olap: no IR
Method: as §1, §2, §3, §4, §5, §6, §7

H1299 cell line [2] = assay: as above; conditions: TTFields 48 h, Olaparib 20 μM
A549 NSCLC cell line = assay: Clonogenic survival, TTFields + Olaparib combination (Highest Single Agent CI); conditions: for CI TTFields + Olap 12.5 μM: Olaparib 12.5 μM; for CI TTFields + Olap 12.5 μM / CI TTFields + Olap 25 μM / CI TTFields + Olap 50 μM: CI>1 = synergistic; for CI TTFields + Olap 25 μM: Olaparib 25 μM; for CI TTFields + Olap 50 μM: Olaparib 50 μM
Method: (§8) Experiments similar to those discussed above in connection with Table 2 and FIG. 6 were also conducted, but with exposure to IR replaced with exposure to three different concentrations (either 10, 20, and 40 μM; or 12.5, 25, and 50 μM, depending on the cell line) of the PARP inhibitor Olaparib. More specifically, Olaparib at each of the different concentrations was added to cells and the cells were then exposed to TTFields for 30 or 60 h (or not exposed to TTFields for the control) and immediately plated for survival. Baseline growth curves for exposing the various NSCLC cell lines to different concentrations of Olaparib without TTFields are depicted in FIG. 7. Clonogenic assays are depicted in FIG. 8 for the different combinations of drug concentration and TTFields exposure time in Table 3.
as §3, §4, §5, §6
(§9) The combination effect was considered enhanced/synergistic when CI>1, additive when CI=1. Statistical significance for a positive effect was determined by the P-value of a two-way ANOVA multiple comparison statistical test comparing the combination (TTFields plus IR) to the single agent showing the greatest cell killing for a given dose and time after IR.

H157 NSCLC cell line = assay: as above; conditions: for CI TTFields + Olap 10 μM: Olaparib 10 μM; for CI TTFields + Olap 10 μM / CI TTFields + Olap 20 μM / CI TTFields + Olap 40 μM: CI>1 = synergistic; for CI TTFields + Olap 20 μM: Olaparib 20 μM; for CI TTFields + Olap 40 μM: Olaparib 40 μM
Method: as §8, §3, §4, §5, §6, §9

H1299 NSCLC cell line = assay: as above; conditions: for CI TTFields + Olap 10 μM: Olaparib 10 μM; for CI TTFields + Olap 10 μM / CI TTFields + Olap 20 μM / CI TTFields + Olap 40 μM: CI>1 = synergistic; for CI TTFields + Olap 20 μM: Olaparib 20 μM; for CI TTFields + Olap 40 μM: Olaparib 40 μM
Method: as §8, §3, §4, §5, §6, §9

H4006 NSCLC cell line = assay: as above; conditions: for CI TTFields + Olap 12.5 μM: Olaparib 12.5 μM; for CI TTFields + Olap 12.5 μM / CI TTFields + Olap 25 μM / CI TTFields + Olap 50 μM: CI>1 = synergistic; for CI TTFields + Olap 25 μM: Olaparib 25 μM; for CI TTFields + Olap 50 μM: Olaparib 50 μM
Method: as §8, §3, §4, §5, §6, §9

[3] = synergistic if CI >1 and P <0.05
[4] = all tested concentrations, synergistic if CI >1 and P <0.05

O=C(c1cc(Cc2n[nH]c(=O)c3ccccc23)ccc1F)N1CCN(C(=O)C2CC2)CC1 [Olaparib]
combined effect of TTFields, IR, and Olaparib on cell death (H1299 cell line [1]; [3]): synergistic | CI TTFields + Olap + 1 Gy (H1299 cell line [1]; TTFields 24 h): 1.64 | CI TTFields + Olap + 2 Gy (H1299 cell line [1]; TTFields 24 h): 1.96 | CI TTFields + Olap (H1299 cell line [1]; TTFields 24 h): 1.03 | CI TTFields + Olap + 1 Gy (H1299 cell line [1]; TTFields 72 h): 1.89 | CI TTFields + Olap + 2 Gy (H1299 cell line [1]; TTFields 72 h): 3.08 | CI TTFields + Olap (H1299 cell line [1]; TTFields 72 h): 1.06 | combined effect of TTFields, IR, and Olaparib on cell death (H157 cell line; [3]): synergistic | CI TTFields + Olap + 1 Gy (H157 cell line; TTFields 24 h): 2.25 | CI TTFields + Olap + 2 Gy (H157 cell line; TTFields 24 h): 2.36 | CI TTFields + Olap (H157 cell line; TTFields 24 h): 0.97 | CI TTFields + Olap + 1 Gy (H157 cell line; TTFields 48 h): 2.12 | CI TTFields + Olap + 2 Gy (H157 cell line; TTFields 48 h): 2.07 | CI TTFields + Olap (H157 cell line; TTFields 48 h): 1.02 | CI TTFields + Olap + 1 Gy (H157 cell line; TTFields 72 h): 1.66 | CI TTFields + Olap + 2 Gy (H157 cell line; TTFields 72 h): 2.57 | CI TTFields + Olap (H157 cell line; TTFields 72 h): 1.49 | CI TTFields + Olap + 1 Gy (H1299 cell line [2]; 1 Gy IR): 1.70 | CI TTFields + Olap + 2 Gy (H1299 cell line [2]; 2 Gy IR): 2.20 | CI TTFields + Olap (H1299 cell line [2]; no IR): 1.02 | CI TTFields + Olap 12.5 μM (A549 NSCLC cell line; TTFields 30 h): 1.12 | CI TTFields + Olap 25 μM (A549 NSCLC cell line; TTFields 30 h): 1.46 | CI TTFields + Olap 50 μM (A549 NSCLC cell line; TTFields 30 h): 1.32 | CI TTFields + Olap 12.5 μM (A549 NSCLC cell line; TTFields 60 h): 1.39 | CI TTFields + Olap 25 μM (A549 NSCLC cell line; TTFields 60 h): 1.716 | CI TTFields + Olap 50 μM (A549 NSCLC cell line; TTFields 60 h): 1.53 | combined effect of TTFields and Olaparib on cell death (A549 NSCLC cell line; [4]): synergistic | CI TTFields + Olap 10 μM (H157 NSCLC cell line; TTFields 30 h): 1.3 | CI TTFields + Olap 20 μM (H157 NSCLC cell line; TTFields 30 h): 1.44 | CI TTFields + Olap 40 μM (H157 NSCLC cell line; TTFields 30 h): 1.78 | CI TTFields + Olap 10 μM (H157 NSCLC cell line; TTFields 60 h): 1.63 | CI TTFields + Olap 20 μM (H157 NSCLC cell line; TTFields 60 h): 1.43 | CI TTFields + Olap 40 μM (H157 NSCLC cell line; TTFields 60 h): 1.68 | combined effect of TTFields and Olaparib on cell death (H157 NSCLC cell line; [4]): synergistic | CI TTFields + Olap 10 μM (H1299 NSCLC cell line; TTFields 30 h): 1.12 | CI TTFields + Olap 20 μM (H1299 NSCLC cell line; TTFields 30 h): 1.42 | CI TTFields + Olap 40 μM (H1299 NSCLC cell line; TTFields 30 h): 1.9 | CI TTFields + Olap 10 μM (H1299 NSCLC cell line; TTFields 60 h): 1.4 | CI TTFields + Olap 20 μM (H1299 NSCLC cell line; TTFields 60 h): 1.5 | CI TTFields + Olap 40 μM (H1299 NSCLC cell line; TTFields 60 h): 3.7 | combined effect of TTFields and Olaparib on cell death (H1299 NSCLC cell line; [4]): synergistic | CI TTFields + Olap 12.5 μM (H4006 NSCLC cell line; TTFields 30 h): 1.17 | CI TTFields + Olap 25 μM (H4006 NSCLC cell line; TTFields 30 h): 1.17 | CI TTFields + Olap 50 μM (H4006 NSCLC cell line; TTFields 30 h): 1.32 | CI TTFields + Olap 12.5 μM (H4006 NSCLC cell line; TTFields 60 h): 1.13 | CI TTFields + Olap 25 μM (H4006 NSCLC cell line; TTFields 60 h): 1.34 | CI TTFields + Olap 50 μM (H4006 NSCLC cell line; TTFields 60 h): 1.96 | combined effect of TTFields and Olaparib on cell death (H4006 NSCLC cell line; [4]): synergistic
